Reference: US20250352555A1, “METHOD OF INCREASING IMMUNE CELL ACTIVATION AND/OR TREATING CANCER USING DIBENZOXAZEPINONES” (VASCULAR THERAPEUTICS PTY LTD, priority 2022, published 2025)

Experiments:
CD28 = CD28 blockade experiment, JUN Western blot in Jurkat T cells; format: cell-based, human; settings: 3 μM BT2 and 3 μM EGF, 24 h
Protocol: CD28 blockade experiments. BT2 (3 nmol), vehicle or a mix of BT2 (3 nmol) and recombinant CD28 (3 nmol, Sino biological cat. no. 90182-C08H) or EGF (3 nmol, Sigma cat. no. E9644) in 150 μl growth medium (10% FBS/RPMI 1640 medium) was preincubated for 30 min at 37° C. The mixtures were added to 12-well plates containing 850 μl of 10% FBS/RPMI 1640 medium and 0.5×10^6 Jurkat T cells/well. After 24 h, total cell lysates were prepared in RIPA buffer. Lysates (10 μg) were resolved by SDS-PAGE and transferred to Immobilon-P polyvinylidene difluoride (PVDF) membranes (Millipore, USA). Membranes were blocked with 5% skim milk and incubated with rabbit monoclonal anti-JUN (Abcam, cat. no. ab32137) antibody, mouse monoclonal β-actin antibody (Sigma-Aldrich, cat. no. A5316), This was followed by incubation with horseradish peroxidase-conjugated secondary goat anti-rabbit (DAKO, cat. no. P0448) or goat anti-mouse (DAKO, cat. no. P0447) antibody. Chemiluminescence was detected using the Western Lightning Chemiluminescence system (Thermo Scientific, USA) and ImageQuant™ LAS 4000 biomolecular imager (GE Healthcare Life Sciences, USA). Band intensity in images generated with the LAS 4000 was quantified using NIH Image J. […]

A375 cells = assay: Apoptosis, flow cytometry with Annexin V-FITC, A375; format: cell-based, human; settings: 1 μM, 24 h
Protocol: Flow cytometry with Annexin V-FITC. Cells were seeded into 6 well plates in normal culture medium containing 10% FBS. After culturing overnight, the cells were incubated in complete medium containing vehicle, BT2 or SCH772984 at 1 μM and left for 24 h. The culture medium was removed and the cells were washed with PBS. Accutase (Stem Cell Technologies, cat. no. 07920) was used to detach the cells. The cells were then washed and centrifuged at 300 g for 5 min and resuspended at 1×10^6 cells/ml in 500 μl of 1× binding buffer (Annexin V-FITC Apoptosis Staining/Detection Kit, Abcam, cat. no. ab14085). The cells were transferred to 12×75 mm tubes and annexin V-FITC/propidium iodide (PI) was added and incubated for 5 min at 22° C. protected from light. Stained cell suspensions were analyzed by flow cytometry using a BD LSRFortessa X20.
The morphology of A375 and MeWo cells exposed to 1 μM of BT2 or SCH772984 for 24 h was also assessed.

total ERK = assay: Immunohistochemistry of MDA-MB-435 tumors, total ERK; format: in vivo, mouse; settings: SCID mice, 20 mg/kg i.t.
Source text: Immunohistochemical staining and analyses. Rabbit monoclonal anti-CD3 (cat. no. ab16669; mouse, rat and human reactive), rabbit monoclonal anti-PD-1 (cat. no. ab214421), rabbit monoclonal anti-CD68 (cat. no. ab125212) antibodies were obtained from Abcam, rabbit monoclonal anti-phospho-ERK (Thr^202/Tyr^204) (cat. no. CST4370), rabbit monoclonal total ERK (cat. no. CST4695), antibodies were obtained from Cell Signaling Technology. Rabbit polyclonal anti-PD-L1 (cat. no. PA5-20343) antibody was obtained from ThermoFisher.
Formalin fixed, paraffin embedded sections were prepared from tumors. Heat-induced epitope retrieval was applied to all deparaffinized sections (4 μm sections on Superfrost slides) with citrate buffer, pH 6.0 for 5 min at 110° C. Sections were blocked with Dual Endogenous Enzyme Block (DAKO, S2003) for 10 min and then with 2% skim milk for 20 min. Slides were incubated with primary antibody for 60 min at room temperature or overnight at 4° C. and then for 10 min with probe of MACH3 Rabbit AP-Polymer Detection solution (Biocare Medical, M3R533 G, H, L). […] Integrated optical density (IOD) or area of positive staining (red chromagen) was assessed using Image-Pro Plus software (Cybernetics, Bethesda, MD, USA). Positive staining was the average of quantitation in 4-8 fields of view under 20× or 40× objectives.

In the case of `CCOC(=O)Nc1ccc2c(c1)C(=O)N(CC)c1ccccc1O2` [BT2, (10-ethyl-11-oxo-10,11-dihydro-dibenzo[b,f][1,4]oxazepin-2-yl)-carbamic acid ethyl ester], the “induction of JUN after preincubation of BT2 with EGF” value (CD28) was “still induced JUN”, the “apoptosis (Annexin V-FITC+ PI−)” value (A375 cells) was “increased apoptosis” and the “total ERK levels in the tumors (IHC)” value (total ERK) was “no effect on total ERK levels”.
